Experimental data published in patent US11267806B2, “Indazole compound for use in inhibiting kinase activity, composition and application thereof” (Shenzhen TargetRx, Inc., priority 2017, dated 2022).
Read-outs that look alike come from different tables or passages of the source.

What was measured:
[1] = Liver microsomal metabolism assay, human; assay type: in vitro ADME; conditions: pH 7.4, human liver microsomes 0.5 mg/mL, compound 1 μM, 37° C.; for microsomal CLint at 1 μM: read-out: Human liver microsome assay CLint; for half-life at 1 μM: read-out: Human liver microsome assay t1/2
Method: (§1) (3) Liver Microsomal Metabolism Assay
(§2) […]; Coenzyme (NADPH/NADH): 1 mM, Sigma Life Science; Magnesium chloride: 5 mM, 100 mM phosphate buffer (pH 7.4).
(§3) Preparation of stock solutions: Powder of the compounds were accurately weighed and dissolved in DMSO to 5 mM.
(§4) Preparation of phosphate buffer (100 mM, pH7.4): A pre-prepared 0.5M potassium dihydrogen phosphate (150 mL) was mixed with 0.5M dibasic potassium phosphate (700 mL). The pH of the mixture was adjusted to 7.4 with 0.5M dibasic potassium phosphate solution. The mixture was diluted 5-fold with ultrapure water before use, and magnesium chloride was added to obtain a phosphate buffer (100 mM) containing 100 mM potassium phosphate, 3.3 mM magnesium chloride, pH 7.4.
(§5) A NADPH regeneration system solution (containing 6.5 mM NADP, 16.5 mM G-6-P, 3 U/mL G-6-P D, 3.3 mM magnesium chloride) was prepared and placed on wet ice prior to use.
(§6) Incubation of the samples: The stock solutions of the respective compounds were respectively diluted to 0.25 mM with an aqueous solution containing 70% acetonitrile, and used as a working solution, ready for use. 398 μL of the dilution of human liver microsomes or rat liver microsomes were added to 96-well incubation plates (N=2), respectively, and 2 μL of 0.25 mM working solution was added and mixed.
(§7) Metabolic stability assay: 300 μL of pre-chilled stop solution was added to each well of 96-well deep well plates and placed on ice as stop plates. The 96-well incubation plates and NADPH regeneration system were placed in a 37° C. water bath box, shaken at 100 rpm and pre-incubated for 5 min. 80 μL of incubation solution was taken out from each well of the incubation plates and added to the stop plates, mixed, and replenished with 20 μL of NADPH regeneration system solution as a 0-min sample. 80 μL of NADPH regeneration system solution was added to each well of the incubation plates to start the reaction and start counting. […] Separately, 100 μL of the reaction solutions was taken at 10, 30, and 90 min reaction, respectively, added to stop plates, and vortexed for 3 minutes to terminate the reaction. The stop plates were centrifuged at 5000×g at 4° C. for 10 min. 100 μL of the supernatant was added to a 96-well plate to which 100 μL of distilled water was previously added, mixed, and analyzed by LC-MS/MS.
(§8) Data analysis: The peak areas of the corresponding compounds and internal standard were detected by LC-MS/MS system, and the ratio of the peak area of the compounds to the internal standard was calculated.
(§9) The metabolic stability of the compounds in human and rat liver microsomes was evaluated by simultaneously testing and comparing the compounds disclosed herein and the non-deuterated compound. […]

Ba/F3 EML-ALK cells = experiment: Cytotoxicity assay (cell viability, CellTiter-Glo), Ba/F3 EML-ALK; assay type: cell-based; conditions: Mus musculus, BaF3, 72 h, read-out: Ba/F3 EML-ALK IC50
[2] = system: Ba/F3 EML-ALK^L1196M cells; experiment: Cytotoxicity assay (cell viability, CellTiter-Glo), Ba/F3 EML-ALK L1196M; assay type: cell-based; conditions: Mus musculus, BaF3, 72 h; cell viability, 3 days incubation; read-out: Ba/F3 EML-ALK^L1196M IC50
[3] = Liver microsomal metabolism assay, rat; assay type: in vitro ADME; conditions: SD, pH 7.4, rat liver microsomes 0.5 mg/mL, compound 1 μM, 37° C.; for microsomal CLint at 1 μM: read-out: Rat liver microsome assay CLint; for half-life at 1 μM: read-out: Rat liver microsome assay t1/2
Method: as §1, §2, §3, §4, §5, §6, §7, §8, §9

KM12 (TPM3-TRKA) cells = experiment: cells; conditions: Homo sapiens, KM12, 72 h, read-out: KM12 IC50
Method: (§10) Assay methods: 1. Preparation of cell plates: Ba/F3, and Ba/F3 Bcr-Abl T315I cells were separately seeded in 96-well plates, and 8 ng/ml IL-3 was added to Ba/F3 cells. The cell plates were placed in a carbon dioxide incubator for culture overnight. 2. […] 3. Treatment of cells with compounds: The compounds were transferred to cell plates at a starting concentration of 10 μM. The cell plates were incubated in a carbon dioxide incubator for 3 days. 4. Detection: CellTiter-Glo reagent was added to the cell plates and incubated for 30 minutes at room temperature to stabilize the luminescence signal. Readings were performed using a PerkinElmer Envision multi-label analyzer.

[4] = system: HCC-78 (SLC34A2-ROS1) cells; experiment: cells; conditions: Homo sapiens, HCC78, 72 h, read-out: HCC-78 IC50
Method: as §10

[5] = Pharmacokinetic assay in rats; assay type: in vivo, SD rat; conditions: male SD rats, i.g., 3 mg/kg; for AUC(0-t) / Cmax / MRT / Tmax: rat, plasma, po
Method: (4) Pharmacokinetic Assay in Rats Assay objective: after administration of test compounds to rats, the pharmacokinetic behavior of the compounds disclosed herein was investigated. Assay Animals: Species and strains: SD rat grade: SPF grade Gender and quantity: male, 6 Weight range: 180 to 220 g (the actual weight range was from 187 to 197 g) Assay Procedure: Before blood samples were collected, 20 μL of 2 M sodium fluoride solution (esterase inhibitor) was previously added to an EDTA-K2 anticoagulant tube, dried in an 80° C. oven, and placed in a 4° C. refrigerator. Rats (male, weighing 187 to 197 g) were randomly divided into 2 groups, and were fasted overnight in the afternoon before the experiment but were allowed to drink water freely. Food was given 4 hours after the administration. […] About 100-200 μL of blood was taken from the orbital vein of rats at 15 min, 30 min, 1, 2, 3, 5, 8 and 10 h after administration, placed in a 0.5 mL Eppendorf tube with EDTA-K2 anticoagulant and mixed immediately. After anticoagulation, the tube was gently inverted 5-6 times as quickly as possible. After the blood was taken, it was placed in an ice box, and then within 30 min, the blood sample was centrifuged for 10 min at 4000 rpm and 4° C. to separate the plasma. Immediately after collection of all plasma, it was stored at −20° C. The concentration of the drug in plasma at each time point was determined after sample collection at all time points. Based on the data of the average concentration of the drug in plasma versus time after administration obtained as described above, pharmacokinetics-related parameters of male SD rats after the i.g. administration of test compounds (3 mg/kg) were calculated using the Winnonin software according to non-compartment statistical moment theory.

[6] = cell viability, 3 days incubation

microsomal CLint at 1 μM [1]	half-life at 1 μM [1]	microsomal CLint at 1 μM [3]	half-life at 1 μM [3]	IC50 (KM12 (TPM3-TRKA) cells)	IC50 [4]	Cl_pred [5]	F [5]	AUC(0-t) [5]	Cmax [5]	MRT [5]	Tmax [5]	SMILES	IC50 (Ba/F3 EML-ALK cells; [6])	IC50 [2]	IC50 (Ba/F3 EML-ALK cells)
47.5 µL/min/mg	29.2 min	33.7 µL/min/mg	41.1 min	–	–	–	–	–	–	–	–	[2H]c1c(F)cc(Cc2ccc3[nH]nc(NC(=O)c4ccc(N5CCN(C)CC5)cc4NC4CCOCC4)c3c2)cc1F [Compound T-9]	50 to 150 nM	> 200 nM	–
48.2 µL/min/mg	28.8 min	31 µL/min/mg	44.7 min	–	–	–	–	–	–	–	–	[2H]c1cc(C(=O)Nc2n[nH]c3ccc(Cc4cc(F)cc(F)c4)cc23)c(NC2CCOCC2)c([2H])c1N1CCN(C([2H])([2H])[2H])CC1 [Compound T-5, N-(5-(3,5-difluorobenzyl)-1H-indazol-3-yl)-4-(4-(methyl-d3)piperazin-1-yl)-2-((tetrahydro-2H-pyran-4-yl)amino)benzamide-3,5-d2]	50 to 150 nM	> 200 nM	–
31.3 µL/min/mg	44.3 min	19.5 µL/min/mg	71.2 min	1 to 10 nM	10 to 50 nM	–	–	–	–	–	–	[2H]C1([2H])N(C)C([2H])([2H])C([2H])([2H])N(c2ccc(C(=O)Nc3n[nH]c4ccc(Cc5cc(F)cc(F)c5)cc34)c(NC3CCOCC3)c2)C1([2H])[2H] [Compound T-2, N-(5-(3,5-difluorobenzyl)-1H-indazol-3-yl)-4-(4-methylpiperazin-1-yl-2,2,3,3,5,5,6,6-d8)-2-((tetrahydro-2H-pyran-4-yl)amino)benzamide]	–	–	50 to 150 nM
36.2 µL/min/mg	38.3 min	21.9 µL/min/mg	63.3 min	–	–	–	–	–	–	–	–	[2H]c1cc(C(=O)Nc2n[nH]c3ccc(Cc4cc(F)cc(F)c4)cc23)c(NC2CCOCC2)c([2H])c1N1CCN(C)CC1 [Compound T-4, N-(5-(3,5-difluorobenzyl)-1H-indazol-3-yl)-4-(4-methylpiperazin-1-yl)-2-((tetrahydro-2H-pyran-4-yl)amino)benzamide-3,5-d]	50 to 150 nM	> 200 nM	–
45 µL/min/mg	30.8 min	31 µL/min/mg	44.6 min	–	–	–	–	–	–	–	–	[2H]C([2H])(c1cc(F)cc(F)c1)c1ccc2[nH]nc(NC(=O)c3ccc(N4CCN(C([2H])([2H])[2H])CC4)cc3NC3CCOCC3)c2c1 [Compound T-11, N-(5-((3,5-difluorophenyl)methyl-d2)-1H-indazol-3-yl)-4-(4-(methyl-d3)piperazin-1-yl)-2-((tetrahydro-2H-pyran-4-yl)amino)benzamide]	10 to 50 nM	> 200 nM	–
39.2 µL/min/mg	35.4 min	27.3 µL/min/mg	50.7 min	–	–	411 mL/min/kg	13.03%	1550 ng·h/mL	237 ng/mL	295 min	200 min	[2H]C([2H])([2H])N1C([2H])([2H])C([2H])([2H])N(c2ccc(C(=O)Nc3n[nH]c4ccc(Cc5cc(F)cc(F)c5)cc34)c(NC3CCOCC3)c2)C([2H])([2H])C1([2H])[2H] [Compound T-3, N-(5-(3,5-difluorobenzyl)-1H-indazol-3-yl)-4-(4-(methyl-d3)piperazin-1-yl-2,2,3,3,5,5,6,6-d8)-2-((tetrahydro-2H-pyran-4-yl)amino)benzamide]	50 to 150 nM	> 200 nM	–
42.5 µL/min/mg	32.6 min	29.7 µL/min/mg	46.7 min	–	–	–	–	–	–	–	–	[2H]c1cc(C(=O)Nc2n[nH]c3ccc(Cc4cc(F)cc(F)c4)cc23)c(NC2CCOCC2)c([2H])c1N1C([2H])([2H])C([2H])([2H])N(C([2H])([2H])[2H])C([2H])([2H])C1([2H])[2H] [Compound T-6, N-(5-(3,5-difluorobenzyl)-1H-indazol-3-yl)-4-(4-(methyl-d3)piperazin-1-yl-2,2,3,3,5,5,6,6-d8)-2-((tetrahydro-2H-pyran-4-yl)amino)benzamide-3,5-d2]	50 to 150 nM	> 200 nM	–
51.1 µL/min/mg	27.1 min	33.7 µL/min/mg	41.1 min	–	–	97.5 mL/min/kg	13.67%	1770 ng·h/mL	278 ng/mL	317 min	240 min	[2H]C([2H])(c1cc(F)cc(F)c1)c1ccc2[nH]nc(NC(=O)c3ccc(N4CCN(C)CC4)cc3NC3CCOCC3)c2c1 [Compound T-7, N-(5-((3,5-difluorophenyl)methyl-d2)-1H-indazol-3-yl)-4-(4-methylpiperazin-1-yl)-2-((tetrahydro-2H-pyran-4-yl)amino)benzamide]	50 to 150 nM	> 200 nM	–
44.9 µL/min/mg	30.9 min	33.6 µL/min/mg	41.3 min	–	–	113 mL/min/kg	11.78%	1530 ng·h/mL	254 ng/mL	265 min	200 min	[2H]C1([2H])CC(Nc2cc(N3CCN(C)CC3)ccc2C(=O)Nc2n[nH]c3ccc(Cc4cc(F)cc(F)c4)cc23)CC([2H])([2H])O1 [Compound T-8, N-(5-(3,5-difluorobenzyl)-1H-indazol-3-yl)-4-(4-methylpiperazin-1-yl)-2-((tetrahydro-2H-pyran-4-yl-2,2,6,6-d4)amino)benzamide]	50 to 150 nM	> 200 nM	–
